Earlier results on one molecule are cited in patent US20250034116A1, “1,4-DIHETEROCYCLIC SUBSTITUTED AROMATIC RING OR AROMATIC HETEROCYCLIC COMPOUND AND USE THEREOF” (BeBetter Med Inc., priority 2022, published 2025).

The conditions of data set [1]: cited from earlier work.
The test system of data set [2] is Cyp4a 14−/− hypertensive mice. Conditions: Cyp4a14−/− hypertensive mice; cited from earlier work.
The test system of data set [3] is Cyp4a14−/− mice. As to conditions: cited from earlier work.

For the molecule `COCCOCCOCCOCCOCCOCCOC(=O)CCCC/C=C\CCCCCCC/C=C\CCCCO` [Compound 20-SOLA], the solubility entry in data set [1] was “more water-soluble”. Also, the blood pressure entry in data set [2] is “restore blood pressure to normal”. Also, in data set [3], the hyperglycemia and hyperinsulinemia entry is “improve hyperglycemia and hyperinsulinemia”; the “weight gain induced by a high-fat diet” value was “reduce the weight gain”.
